This is an account of results in US9809585B2, “Fluorinated 2-arylbenzo heterocyclic compound with high affinity to Aβ 946; plaques and containing chiral side chain substituent, and preparation method and usage thereof” (BEIJING ZHIBO BIO-MEDICAL TECHNOLOGY CO.,LTD, priority 2014, dated 2017).

What is called Ki is a measure of affinity in units of concentration, obtained from inhibition or displacement.

The structures appear in SMILES notation.

In series [1] the target is T1, protein polymer Aβ1-42 (Homo sapiens, UniProt P05067).
T1 construct: A receptor Aβ1-42 protein is prepared by an established method
T1 sequence (P05067 672-713 limits assumed): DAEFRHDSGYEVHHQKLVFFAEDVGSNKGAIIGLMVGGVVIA
As to the kind of experiment: Competitive binding experiment (Ki assay) against [125I]IMPY. Conditions: read-out: Ki (inhibition constant). The protocol: Competitive binding experiment (Ki assay): Put a protein polymer Aβ1-42 of a certain concentration and a radioactive ligand [^125I] […] (5) A glass fiber filter is soaked in a PBS solution containing 0.1% (volume fraction) of polyethyleneimine for 0.5 h. (6) Add 100 μL of a solution of a compound to be tested and of different concentrations, 100 μL of the [^125I] […] Seal the tub with parafilm and swirl it. (7) Shake the tube in a water bath constantly at 37° C. and maintain the incubation for 2 h. (8) Collect the reaction solution with a multi-phase cell collector. Rinse the collected solution with the PBS for three times, 3 mL for each rinse. (9) Count with a γ counter. (10) Process the data.

Series [2] in a line: In-vivo biodistribution experiment on normal mice. Also on record: species or system mice (ICR, male). As to conditions: for Bones radioactivity: tail vein injection. The protocol: The in-vivo pharmacokinetic properties of mice have been studied with the in-vivo biodistribution experiment, especially the absorption by the primitive brain and the removal from the brain.
Inject 5-10 μCi of a labeled compound (100 μL of a physiological saline solution containing 5% of ethanol) into normal mice (ICR, male, 20-22 g) (n=5) by tail vein injection. The mice are decapitated respectively 2 minutes, 10 minutes, 30 minutes and 60 minutes after the injection. Dissect the mice and take out the relevant organs. Measure the moisture content and the radioactivity amount. The measurement values represent the percentage of the radioactivity amount in an organ (% ID/organ) and the percentage of the radioactivity amount in the organ of one gram (% ID/g).

Turning to `CNc1ccc(-c2nc3ccc(OC[C@@H](O)CF)cc3s2)cc1` [Compound 14r], the Ki in series [1] came to 27.2 ± 2.9 nM.
For `CNc1ccc(-c2nc3ccc(OC[C@H](O)CF)cc3s2)cc1` [Compound 14s], the Ki in series [1] was 26 ± 6.5 nM.
With `CN(C)c1ccc(-c2nc3ccc(OC[C@@H](O)CF)cc3s2)cc1` [Compound 15r], in series [1], the Ki came out at 3.2 ± 1.1 nM.
Take `CN(C)c1ccc(-c2nc3ccc(OC[C@H](O)CF)cc3s2)cc1` [Compound 15s]: the Ki in series [1] came to 3.7 ± 1.1 nM.
Same read-out and setting: as for `CNc1ccc(-c2nc3ccc(OC[C@@H](O)CF)cc3s2)cn1` [Compound 16r], the figure is 9.9 ± 2.8 nM.
As for `CNc1ccc(-c2nc3ccc(OC[C@H](O)CF)cc3s2)cn1` [Compound 16s], the inhibition constant (Ki) in series [1] came out at 45.4 ± 11.8 nM.
`CN(C)c1ccc(-c2nc3ccc(OC[C@@H](O)CF)cc3s2)cn1` [Compound 17r]: the Ki in series [1] came to 11.1 ± 5.4 nM.
As for `CN(C)c1ccc(-c2nc3ccc(OC[C@H](O)CF)cc3s2)cn1` [Compound 17s], in series [1], the Ki was found to be 27.2 ± 7.1 nM.
Same read-out and setting: as for `CNc1ccc(-c2nc3ccc(OC[C@@H](O)CF)cc3o2)cc1` [Compound 18r], the figure is 129 ± 40.2 nM; as for `CNc1ccc(-c2nc3ccc(OC[C@H](O)CF)cc3o2)cc1` [Compound 18s], 103 ± 18.6 nM.
On the same count and under the same terms, as for `CN(C)c1ccc(-c2nc3ccc(OC[C@@H](O)CF)cc3o2)cc1` [Compound 19r], the figure is 10.8 ± 2.6 nM; as for `CN(C)c1ccc(-c2nc3ccc(OC[C@H](O)CF)cc3o2)cc1` [Compound 19s], 11 ± 1.5 nM; as for `CNc1ccc(-c2nc3cc(OC[C@@H](O)CF)ccc3o2)cc1` [Compound 28r], 85.3 ± 5.2 nM.
On the same count and under the same terms, as for `CNc1ccc(-c2nc3cc(OC[C@H](O)CF)ccc3o2)cc1` [Compound 28s], the figure is 67.3 ± 5.5 nM; as for `CN(C)c1ccc(-c2nc3cc(OC[C@@H](O)CF)ccc3o2)cc1` [Compound 29r], 7.6 ± 2.8 nM.
Turning to `CN(C)c1ccc(-c2nc3cc(OC[C@H](O)CF)ccc3o2)cc1` [Compound 29s], the Ki in series [1] worked out at 15.5 ± 3.2 nM.
On the same count and under the same terms, as for `CNc1ccc(-c2nc3cc(OC[C@@H](O)CF)ccc3o2)cn1` [Compound 30r], the figure is 187 ± 39 nM; as for `CNc1ccc(-c2nc3cc(OC[C@H](O)CF)ccc3o2)cn1` [Compound 30s], 196 ± 49.1 nM.
As to `CN(C)c1ccc(-c2nc3cc(OC[C@@H](O)CF)ccc3o2)cn1` [Compound 31r], in series [1], the Ki was 27.2 ± 6.3 nM.
Same read-out and setting: as for `CN(C)c1ccc(-c2nc3cc(OC[C@H](O)CF)ccc3o2)cn1` [Compound 31s], the figure is 57.4 ± 7.6 nM.
In the case of `CN(C)c1ccc(-c2nc3ccc(OC[C@@H](O)C[18F])cc3s2)cc1` [Compound [^18F]15r], the Bones radioactivity is reported as 2.43 ± 0.53 % ID/g in series [2] (2 min.), 2.31 ± 0.26 % ID/g in series [2] (10 min), 1.42 ± 0.27 % ID/g in series [2] (30 min) and 1.12 ± 0.59 % ID/g in series [2] (1 h).
Regarding `CN(C)c1ccc(-c2nc3ccc(OC[C@H](O)C[18F])cc3s2)cc1` [Compound [^18F]15s], the Bones radioactivity in series [2] (2 min.) turned out to be 2.31 ± 0.71 % ID/g; in series [2] (10 min) it was 1.82 ± 0.39 % ID/g; in series [2] (30 min) it was 1.45 ± 0.48 % ID/g; in series [2] (1 h) it was 1.08 ± 0.38 % ID/g.
The like results for `CNc1ccc(-c2nc3cc(OC[C@@H](O)C[18F])ccc3o2)cc1` [Compound [^18F]28r] were, in that order, 1.41 ± 0.29 % ID/g, 1.79 ± 0.21 % ID/g, 1.19 ± 0.15 % ID/g and 3.05 ± 0.86 % ID/g.
The like results for `CNc1ccc(-c2nc3cc(OC[C@H](O)C[18F])ccc3o2)cc1` [Compound [^18F]28s] were, in that order, 1.63 ± 0.44 % ID/g, 0.77 ± 0.11 % ID/g, 0.52 ± 0.16 % ID/g and 0.74 ± 0.13 % ID/g.
The like results for `CN(C)c1ccc(-c2nc3cc(OC[C@@H](O)C[18F])ccc3o2)cc1` [Compound [^18F]29r] were, in that order, 2.12 ± 0.60 % ID/g, 1.24 ± 0.40 % ID/g, 1.36 ± 0.41 % ID/g and 1.93 ± 0.77 % ID/g.
For `CN(C)c1ccc(-c2nc3cc(OC[C@H](O)C[18F])ccc3o2)cc1` [Compound [^18F]29s], the “removal from the brain” value in series [2] was “quickly removed from the brain of normal mice”. Further, the “ratio of the absorption in 2 minutes to that in 60 minutes (brain)” value in series [2] (brain) amounted to 27.8. For the same compound, the Bones radioactivity stood at 2.06 ± 0.45 % ID/g in series [2] (2 min.), 0.99 ± 0.35 % ID/g in series [2] (10 min), 0.85 ± 0.30 % ID/g in series [2] (30 min) and 1.13 ± 0.28 % ID/g in series [2] (1 h).
